Assay [1] concerns the target T1, dopaminergic receptors D2 (Oryctolagus cuniculus, UniProt G1T1Q0).
T1 construct: The central ear artery was cut into 3 mm-rings; from tissue; host or cells: central ear artery rings of male New Zealand rabbits
Description: D2 activity in the rabbit ear artery (REA), electrically stimulated isolated artery rings. The note with it: rabbit central ear artery rings, electrically stimulated (10 Hz); cumulative administration; agonistic activity at peak of effect; read-out: D2 activity (REA) expressed as pD2, i.e. -logEC50 (converted). As to the method: Evaluation of the D2 activity in the rabbit ear artery (REA)
Artery rings were prepared following the method described by Steinsland et al., Science, 1978, 443, 199, modified as follows.
Male New Zealand rabbits (weighing 2.5-3 Kg) were sacrificed by a pentobarbital intravenous injection and bled. The central ear artery was cut into 3 mm-rings.
The samples were placed into a 25 ml-bath containing a Krebs solution (mM/l): sodium chloride 118, potassium chloride 4.7, calcium chloride 2.5, magnesium sulphate 1.2, sodium hydrocarbonate 25, potassium biphosphate 1.2, glucose 11.1, balanced with oxygen 95%/carbon dioxide 5% and maintained at 35±1° C. The Krebs solution was added with EDTA (10 μM) to prevent the cathecolamine oxidation, with desipramine (0,1 μM) and corticosterone (30 μM) to stop the neuronal and extraneuronal cathecolamine re-uptake.
The samples were electrically stimulated (10 Hz, 1 msec., 40-80 mA, 500 msec long) at intervals of 5 minutes.
(§1) The tested compounds were cumulatively administered.
(§2) Dopamine was used as reference compound.

Assay [2] deals with dopaminergic receptors D1 (Oryctolagus cuniculus, UniProt G1SML2). Description: D1 activity on the rabbit splenic artery (RSA), isolated artery rings contracted with U46619. The note with it: cumulative administration, agonistic activity at peak of effect. As for the experimental part: Tests of dopaminergic activity on isolated tissues Evaluation of the D1 activity on the rabbit splenic artery (RSA)
Artery rings were prepared according to Semeraro et al., Naunyn. Schnied. Arch. […] These were contracted with U46619 (9,11-dideoxy-11α, 9α -epoxy-methanprostaglandine F2 α) at a submaximal concentration of […].
as §1, §2

Molecules are shown by their SMILES.

T1 sequence (G1T1Q0 1-443): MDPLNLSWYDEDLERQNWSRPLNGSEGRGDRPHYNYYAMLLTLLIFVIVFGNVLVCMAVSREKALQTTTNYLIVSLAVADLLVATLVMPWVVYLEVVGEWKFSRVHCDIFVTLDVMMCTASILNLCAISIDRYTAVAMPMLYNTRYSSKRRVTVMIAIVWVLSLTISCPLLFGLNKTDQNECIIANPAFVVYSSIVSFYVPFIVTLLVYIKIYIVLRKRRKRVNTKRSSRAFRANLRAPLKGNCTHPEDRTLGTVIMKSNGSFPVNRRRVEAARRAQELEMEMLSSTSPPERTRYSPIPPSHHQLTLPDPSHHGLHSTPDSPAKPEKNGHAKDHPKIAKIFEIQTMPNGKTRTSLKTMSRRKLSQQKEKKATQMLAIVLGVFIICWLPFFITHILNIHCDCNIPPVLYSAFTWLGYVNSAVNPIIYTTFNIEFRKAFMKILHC
Chain of dopaminergic receptors D1 (G1SML2 1-448): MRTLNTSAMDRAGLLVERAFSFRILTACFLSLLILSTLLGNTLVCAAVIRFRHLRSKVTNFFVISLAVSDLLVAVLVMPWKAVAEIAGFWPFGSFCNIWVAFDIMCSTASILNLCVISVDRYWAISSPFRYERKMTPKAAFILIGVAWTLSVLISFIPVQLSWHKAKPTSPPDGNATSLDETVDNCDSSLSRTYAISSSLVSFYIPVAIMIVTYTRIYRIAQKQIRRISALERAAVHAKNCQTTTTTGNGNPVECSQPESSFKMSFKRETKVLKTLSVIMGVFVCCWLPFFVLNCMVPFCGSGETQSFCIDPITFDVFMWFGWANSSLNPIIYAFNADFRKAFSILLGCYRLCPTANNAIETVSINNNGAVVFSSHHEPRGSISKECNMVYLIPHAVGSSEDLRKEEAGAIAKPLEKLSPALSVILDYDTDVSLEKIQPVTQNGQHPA

`NCCc1ccc(O)c(O)c1` [Dopamine, reference compound]: in assay [1], the EC50 was 15.8 nM. For `CCCN(CCC)[C@H]1CCc2c(ccc(O)c2CO)C1.O=C(O)/C=C\C(=O)O` [Example 6, (S)-N,N-dipropyl-6-hydroxy-5-hydroxymethyl-1,2,3,4-tetrahydro-2-naphthylamine maleate], the EC50 in assay [1] is 10 nM. Besides, the “D1 activity (RSA) expressed as pD2, i.e. -logEC50” value in assay [2] turned out to be 6.0.

For the origin of these results see US6063964A, “5-hydroxymethyl-2-aminotetralins as cardiovascular agents” (Zambon Group S.p.A., priority 1997, dated 2000).
